Experimental data published in patent US20110166121A1 (LG LIFE SCIENCES LTD., priority 2008, published 2011).

Tests used:
[1] = test system: Human platelet aggregation caused by ADP; test: Inhibition of ADP-induced platelet aggregation (Mimic-human PRP); format: cell-based; details: 20 μM ADP, human platelet concentrate diluted with PPP, absorption at 595 nm
Procedure, shortened: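 Human PRP diluted with PPP to 3–4×10^8 platelets/mL was preincubated 20 min at room temperature with compound (0.01–30 μM, DMSO), then stimulated with 20 μM ADP. Aggregation read as A595 increase at 3 min versus 0 and 20 μM ADP controls; Ki from sigmoidal non-linear regression.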

Human P2Y12 receptor = molecular target: T1, Human P2Y12 receptor (Homo sapiens, UniProt Q9H244); test: Human P2Y12 receptor cell membrane binding assay with [3H] 2-Mes-ADP; details: 1 nM [3H] 2-Mes-ADP, membranes of HEK cells expressing P2Y12 receptor; read-out: Binding activity (IC50)
T1 construct: expressed in transfected cells; host or cells: HEK cells
Procedure, shortened: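 Membranes from HEK cells expressing human P2Y12 were incubated with compound and 1 nM [3H]2-MeS-ADP for 1 h at room temperature. Bound radioactivity was collected by GF/B filtration.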

T1 sequence (Q9H244 whole entry): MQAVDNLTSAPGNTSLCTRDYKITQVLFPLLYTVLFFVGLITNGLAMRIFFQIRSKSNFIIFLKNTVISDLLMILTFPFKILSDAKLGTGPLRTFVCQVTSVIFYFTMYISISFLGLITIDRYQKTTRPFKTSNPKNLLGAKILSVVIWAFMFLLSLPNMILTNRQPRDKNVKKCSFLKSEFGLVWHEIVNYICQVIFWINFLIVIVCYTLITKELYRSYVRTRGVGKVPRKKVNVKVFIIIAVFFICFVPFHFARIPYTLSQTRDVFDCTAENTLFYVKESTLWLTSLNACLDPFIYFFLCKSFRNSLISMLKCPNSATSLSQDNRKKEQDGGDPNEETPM

CCCc1cc2c(N3CCn4c(nnc4C(F)(F)F)C3)nc(-c3nc(CCO)no3)nc2s1 [Example 4-30, 2-{5-[6-Propyl-4-(3-trifluoromethyl-5,6-dihydro-8H-[1,2,4]triazolo[4,3-a]pyrazin-7-yl)thieno[2,3-d]pyrimidin-2-yl]-[1,2,4]oxadiazol-3-yl}ethanol]
Ki [1]: 830 nM
IC50 (Human P2Y12 receptor): 6500 nM

CCCc1cc2c(N3CCn4c(nnc4C(F)(F)F)C3)nc(-c3nc(CC(OC)OC)no3)nc2s1 [Example 4-31, 7-{2-[3-(2,2-Dimethoxy-ethyl)-[1,2,4]oxadiazol-5-yl]-6-propyl-thieno[2,3-d]pyrimidin-4-yl}-3-trifluoromethyl-5,6,7,8-tetrahydro-[1,2,4]triazolo[4,3-a]pyrazine]
Ki [1]: > 4000 nM
IC50 (Human P2Y12 receptor): 420 nM

CCCc1cc2c(N3CCn4c(nnc4C(F)(F)F)C3)nc(-c3nnc(C)o3)nc2s1 [Example 4-32, 7-[2-(5-Methyl-[1,3,4]oxadiazol-2-yl)-6-propyl-thieno[2,3-d]pyrimidin-4-yl]-3-trifluoromethyl-5,6,7,8-tetrahydro-[1,2,4]triazolo[4,3-a]pyrazine]
Ki [1]: 150 nM
IC50 (Human P2Y12 receptor): 230 nM

CCCc1cc2c(N3CCn4c(nnc4C(F)(F)F)C3)nc(-c3nnc(-c4ccccc4)o3)nc2s1 [Example 4-33, 7-[2-(5-Phenyl-[1,3,4]oxadiazol-2-yl)-6-propyl-thieno[2,3-d]pyrimidin-4-yl]-3-trifluoromethyl-5,6,7,8-tetrahydro-[1,2,4]triazolo[4,3-a]pyrazine]
Ki [1]: 100 nM
IC50 (Human P2Y12 receptor): 75 nM

CCCc1cc2c(N3CCn4c(nnc4C(F)(F)F)C3)nc(-c3nnc(CC#N)o3)nc2s1 [Example 4-34, {5-[6-Propyl-4-(3-trifluoromethyl-5,6-dihydro-8H-[1,2,4]triazolo[4,3-a]pyrazin-7-yl)thieno[2,3-d]pyrimidin-2-yl]-[1,3,4]oxadiazol-2-yl}acetonitrile]
Ki [1]: 13 nM
IC50 (Human P2Y12 receptor): 68 nM

CCCc1cc2c(N3CCn4c(nnc4C(F)(F)F)C3)nc(-c3nnc(COC)o3)nc2s1 [Example 4-35, 7-[2-(5-Methoxymethyl-[1,3,4]oxadiazol-2-yl)-6-propyl-thieno[2,3-d]pyrimidin-4-yl]-3-trifluoromethyl-5,6,7,8-tetrahydro-[1,2,4]triazolo[4,3-a]pyrazine]
Ki [1]: 30 nM
IC50 (Human P2Y12 receptor): 130 nM

CCCc1cc2c(N3CCn4c(nnc4C(F)(F)F)C3)nc(-c3nnc(CO)o3)nc2s1 [Example 4-36, {5-[6-Propyl-4-(3-trifluoromethyl-5,6-dihydro-8H-[1,2,4]triazolo[4,3-a]pyrazin-7-yl)thieno[2,3-d]pyrimidin-2-yl]-[1,3,4]oxadiazol-2-yl}methanol]
Ki [1]: 300 nM
IC50 (Human P2Y12 receptor): 250 nM

CCCc1cc2c(N3CCn4c(nnc4C(F)(F)F)C3)nc(-c3nnc(CCOC)o3)nc2s1 [Example 4-37, 7-{2-[5-(2-Methoxyethyl)-[1,3,4]oxadiazol-2-yl]-6-propyl-thieno[2,3-d]pyrimidin-4-yl}-3-trifluoromethyl-5,6,7,8-tetrahydro-[1,2,4]triazolo[4,3-a]pyrazine]
Ki [1]: 250 nM
IC50 (Human P2Y12 receptor): 192 nM

CCCc1cc2c(N3CCn4c(nnc4C(F)(F)F)C3)nc(-c3nnc(CCO)o3)nc2s1 [Example 4-38, 2-{5-[6-Propyl-4-(3-trifluoromethyl-5,6-dihydro-8H-[1,2,4]triazolo[4,3-a]pyrazin-7-yl)thieno[2,3-d]pyrimidin-2-yl]-[1,3,4]oxadiazol-2-yl}ethanol]
Ki [1]: 250 nM
IC50 (Human P2Y12 receptor): 320 nM

CCCc1cc2c(N3CCn4c(nnc4C(F)(F)F)C3)nc(-c3nnc(N)o3)nc2s1 [Example 4-39, 5-[6-Propyl-4-(3-trifluoromethyl-5,6-dihydro-8H-[1,2,4]triazolo[4,3-a]pyrazin-7-yl)thieno[2,3-d]pyrimidin-2-yl]-[1,3,4]oxadiazol-2-ylamine]
Ki [1]: 160 nM
IC50 (Human P2Y12 receptor): 100 nM

CCCc1cc2c(N3CCn4c(nnc4C(F)(F)F)C3)nc(-c3nnc(CC(=O)OCC)o3)nc2s1 [Example 4-40, {5-[6-Propyl-4-(3-trifluoromethyl-5,6-dihydro-8H-[1,2,4]triazolo[4,3-a]pyrazin-7-yl)thieno[2,3-d]pyrimidin-2-yl]-[1,3,4]oxadiazol-2-yl}acetic acid ethyl ester]
Ki [1]: 270 nM
IC50 (Human P2Y12 receptor): 230 nM

CCCc1cc2c(N3CCn4c(nnc4C(F)(F)F)C3)nc(-c3nnc(CC(=O)O)o3)nc2s1 [Example 4-41, {5-[6-Propyl-4-(3-trifluoromethyl-5,6-dihydro-8H-[1,2,4]triazolo[4,3-a]pyrazin-7-yl)thieno[2,3-d]pyrimidin-2-yl]-[1,3,4]oxadiazol-2-yl}acetic acid]
Ki [1]: 700 nM
IC50 (Human P2Y12 receptor): 410 nM

CCCc1cc2c(N3CCn4c(nnc4C(F)(F)F)C3)nc(-c3nnc(Cc4ccccc4)o3)nc2s1 [Example 4-42, 7-[2-(5-Benzyl-[1,3,4]oxadiazol-2-yl)-6-propyl-thieno[2,3-d]pyrimidin-4-yl]-3-trifluoromethyl-5,6,7,8-tetrahydro-[1,2,4]triazolo[4,3-a]pyrazine]
Ki [1]: 160 nM
IC50 (Human P2Y12 receptor): 29 nM

CCCc1cc2c(N3CCn4c(nnc4C(F)(F)F)C3)nc(-c3nnc(CC4CCCCC4)o3)nc2s1 [Example 4-43, 7-[2-(5-Cyclohexylmethyl-[1,3,4]oxadiazol-2-yl)-6-propyl-thieno[2,3-d]pyrimidin-4-yl]-3-trifluoromethyl-5,6,7,8-tetrahydro-[1,2,4]triazolo[4,3-a]pyrazine]
Ki [1]: 2700 nM
IC50 (Human P2Y12 receptor): 147 nM

CCCc1cc2c(N3CCn4c(nnc4C(F)(F)F)C3)nc(-c3nnn[nH]3)nc2s1 [Example 4-44, 7-[6-Propyl-2-(1H-tetrazol-5-yl)-thieno[2,3-d]pyrimidin-4-yl]-3-trifluoromethyl-5,6,7,8-tetrahydro-[1,2,4]triazolo[4,3-a]pyrazine]
Ki [1]: > 4000 nM
IC50 (Human P2Y12 receptor): 1600 nM

CCCc1cc2c(N3CCn4c(nnc4C(F)(F)F)C3)nc(C3=N[C@H](C(=O)OC)CS3)nc2s1 [Example 4-47, (R)-2-[6-Propyl-4-(3-trifluoromethyl-5,6-dihydro-8H-[1,2,4]triazolo[4,3-a]pyrazin-7-yl)thieno[2,3-d]pyrimidin-2-yl]-4,5-dihydro-thiazole-4-carboxylic acid methyl ester]
Ki [1]: 13 nM
IC50 (Human P2Y12 receptor): 24 nM

CCCc1cc2c(N3CCn4c(nnc4C(F)(F)F)C3)nc(C3=N[C@H](CC(=O)OC(C)C)CS3)nc2s1 [Example 4-48, {(R)-2-[6-Propyl-4-(3-trifluoromethyl-5,6-dihydro-8H-[1,2,4]triazolo[4,3-a]pyrazin-7-yl)thieno[2,3-d]pyrimidin-2-yl]-4,5-dihydro-thiazol-4-yl}acetic acid isopropyl ester]
Ki [1]: 510 nM
IC50 (Human P2Y12 receptor): 210 nM

CCCc1cc2c(N3CCn4c(nnc4C(F)(F)F)C3)nc(C3=N[C@H](CC(=O)O)CS3)nc2s1 [Example 4-49, {(R)-2-[6-Propyl-4-(3-trifluoromethyl-5,6-dihydro-8H-[1,2,4]triazolo[4,3-a]pyrazin-7-yl)thieno[2,3-d]pyrimidin-2-yl]-4,5-dihydro-thiazol-4-yl}acetic acid]
Ki [1]: 11 nM
IC50 (Human P2Y12 receptor): 33 nM

CCCc1cc2c(N3CCn4c(nnc4C(F)(F)F)C3)nc(-c3nc(CO)cs3)nc2s1 [Example 4-50, {2-[6-Propyl-4-(3-trifluoromethyl-5,6-dihydro-8H-[1,2,4]triazolo[4,3-a]pyrazin-7-yl)thieno[2,3-d]pyrimidin-2-yl]thiazol-4-yl}methanol]
Ki [1]: 34 nM
IC50 (Human P2Y12 receptor): 57 nM

CCCc1cc2c(N3CCn4c(nnc4C(F)(F)F)C3)nc(-c3nc(CC(=O)OCC)cs3)nc2s1 [Example 4-51, {2-[6-Propyl-4-(3-trifluoromethyl-5,6-dihydro-8H-[1,2,4]triazolo[4,3-a]pyrazin-7-yl)thieno[2,3-d]pyrimidin-2-yl]thiazol-4-yl}acetic acid ethyl ester]
Ki [1]: 36 nM
IC50 (Human P2Y12 receptor): 40 nM

CCCc1cc2c(N3CCn4c(nnc4C(F)(F)F)C3)nc(-c3nc(CC(=O)O)cs3)nc2s1 [Example 4-52, {2-[6-Propyl-4-(3-trifluoromethyl-5,6-dihydro-8H-[1,2,4]triazolo[4,3-a]pyrazin-7-yl)thieno[2,3-d]pyrimidin-2-yl]thiazol-4-yl}acetic acid]
Ki [1]: 38 nM
IC50 (Human P2Y12 receptor): 14 nM

CCCc1cc2c(N3CCn4c(nnc4C(F)(F)F)C3)nc(CC(=O)OCC)nc2s1 [Example 4-53, [6-Propyl-4-(3-trifluoromethyl-5,6-dihydro-8H-[1,2,4]triazolo[4,3-a]pyrazin-7-yl)thieno[2,3-d]pyrimidin-2-yl]acetic acid ethyl ester]
Ki [1]: 5250 nM
IC50 (Human P2Y12 receptor): 300 nM

CCCc1cc2c(N3CCn4c(nnc4C(F)(F)F)C3)nc(CC(=O)O)nc2s1 [Example 4-54, [6-Propyl-4-(3-trifluoromethyl-5,6-dihydro-8H-[1,2,4]triazolo[4,3-a]pyrazin-7-yl)thieno[2,3-d]pyrimidin-2-yl]acetic acid]
Ki [1]: 470 nM
IC50 (Human P2Y12 receptor): 370 nM

CCCc1cc2c(N3CCn4c(nnc4C(F)(F)F)C3)nc(CC(N)=O)nc2s1 [Example 4-55, 2-[6-Propyl-4-(3-trifluoromethyl-5,6-dihydro-8H-[1,2,4]triazolo[4,3-a]pyrazin-7-yl)-thieno[2,3-d]pyrimidin-2-yl]-acetamide]
Ki [1]: 4.2 nM
IC50 (Human P2Y12 receptor): 174 nM

CCCc1cc2c(N3CCn4c(nnc4C(F)(F)F)C3)nc(CC(N)=S)nc2s1 [Example 4-56, 2-[6-Propyl-4-(3-trifluoromethyl-5,6-dihydro-8H-[1,2,4]triazolo[4,3-a]pyrazin-7-yl)-thieno[2,3-d]pyrimidin-2-yl]-thioacetamide]
Ki [1]: 6.4 nM
IC50 (Human P2Y12 receptor): 170 nM
